Experiment: xn = mol fraction of the nth substance listed
Details: 101.3 kPa

CC[n+]1ccn(C)c1.O=S(=O)([N-]S(=O)(=O)C(F)(F)F)C(F)(F)F + CCCOCCO
x1 = 1
Details | speed of sound [m/s]
298.15 K | 1239.6
303.15 K | 1228.7
308.15 K | 1218.2
313.15 K | 1207.3
318.15 K | 1196.8

CCCOCCO + CC[n+]1ccn(C)c1.O=S(=O)([N-]S(=O)(=O)C(F)(F)F)C(F)(F)F
speed of sound [m/s]
Details | 298.15 K | 303.15 K | 308.15 K | 313.15 K | 318.15 K
x2 = 0.0479 | 1290.9 | 1275.1 | – | 1243.4 | 1228.5
x2 = 0.0964 | 1283.5 | – | 1253.7 | 1238.8 | –
x2 = 0.1514 | 1278 | 1264.2 | 1249.6 | 1234.5 | 1220.2
x2 = 0.2034 | 1273.8 | – | 1245.7 | – | –
x2 = 0.2917 | 1268 | 1255 | 1241.1 | – | –
x2 = 0.3883 | 1263.2 | 1250.6 | 1237 | 1223.4 | –
x2 = 0.4926 | 1258.1 | – | 1233.3 | 1220.8 | 1208.4
x2 = 0.5974 | 1252.8 | 1240.9 | 1229.2 | 1217.1 | 1205.2
x2 = 0.6927 | 1248 | 1236.4 | 1225 | 1214 | 1202.8
x2 = 0.7631 | – | 1232.8 | 1222 | 1211.3 | 1200.3
x2 = 0.8253 | 1241.9 | 1230.8 | 1220.5 | 1209.8 | 1199.5
x2 = 0.8945 | 1240.7 | – | 1219.2 | 1208.4 | 1198.4
x2 = 0.9518 | 1239.7 | 1229.2 | 1218.8 | 1207.7 | 1198
